Drawing on patent US11931423B2, “Glucose oxidase-nanoparticle bioconjugates for cancer treatment” (UNIVERSITY OF PITTSBURGH—OF THE COMMONWEALTH SYSTEM OF …, priority 2017, dated 2024), this text covers viability for one compound.

The test system of this assay is A431 cells with high EGFR expression. The assay is described as follows: A431 cell viability (CellTiter-Glo viability assay). Format: cell-based. The following applies: Homo sapiens, A-431, 50 μM (30 μg/mL), after 24 h, PBS = 100% viability. As for the experimental part: As a comparison, the A431 cells were also treated with SPION alone, a mixture of unconjugated SPION and GOx, and doxorubicin (a chemotherapy drug).
A431 cancer cells were purchased from ATCC. They were cultured in Dulbecco's Modified Eagle Medium (DMEM) containing 10% FBS, penicillin (100 U/mL), and streptomycin (100 μg/mL) at 37° C. in a humidified atmosphere containing 5% CO2 and 95% air.
50 μL SPION, the mixture of GOx and SPION without conjugation, mAb-GOx-SPION, doxorubicin, or PBS (as a control) were each added to a 96-well plate seeded with A431 cancer cells, followed by addition of 100 μL of DMEM containing 4 g/L glucose. After being incubated for various amounts of time, the cells were washed with PBS 3 times. 100 μL DMEM was added before cell viability was measured by using a CellTiter-Glo viability assay kit.
The cytotoxic effects of the system as functions of the concentrations of both cetuximab-GOx-SPION and glucose were investigated. 50 μL cetuximab-GOx-SPION (1.0 μg/mL) was added to 96-well plates seeded with A431 and HeLa cancer cells, followed by addition of 100 μL of DMEM that contains glucose at 20 g/L. After 1.5 h incubation, the cells were washed with PBS 3 times and then cultured in 200 μL of DMEM. After being incubated for another 12 h, cell viability was measured by using CellTiter-Glo viability assay kit. […]
(Cellular ATP, detected with luciferase, serves as a proxy for viable cell number.)

The term viability denotes a read-out of living cells in per cent, often relative to untreated cells. Higher therefore signals less harm to the cells. Compound `COc1cccc2c1C(=O)c1c(O)c3c(c(O)c1C2=O)C[C@@](O)(C(=O)CO)C[C@@H]3O[C@H]1C[C@H](N)[C@H](O)[C@H](C)O1` [doxorubicin] gave a viability at 50 µM of about 3%.
